Biological target: PodA30–162 (Mycolicibacterium fortuitum, UniProt K0V2D8)
Assay: X-ray crystal structure, […] Å
Format: binding
Conditions: co-crystal; solvent-exposed active site, stacking with F70

With `Oc1cccc2nc3ccccc3nc12` [1-hydroxyphenazine] the “X-ray crystal structure, 1.8 Å” value was “Crystal formation occurred only in the presence of 1-OH-PHZ, which was visible in a putative”.

— publication PMC5303695 (Science (New York, N.Y.), 2016)
